SMILES strings stand for the structures.

The test deals with α7-subtype of nicotinic receptors (Mus musculus, UniProt P49582). The experiment in a line: in vivo. On the set-up: species or system mice. Conditions: read-out: Inhibition of 3H-α-Bungarotoxine Binding EC50.
Sequence of α7-subtype of nicotinic receptors (P49582 23-502): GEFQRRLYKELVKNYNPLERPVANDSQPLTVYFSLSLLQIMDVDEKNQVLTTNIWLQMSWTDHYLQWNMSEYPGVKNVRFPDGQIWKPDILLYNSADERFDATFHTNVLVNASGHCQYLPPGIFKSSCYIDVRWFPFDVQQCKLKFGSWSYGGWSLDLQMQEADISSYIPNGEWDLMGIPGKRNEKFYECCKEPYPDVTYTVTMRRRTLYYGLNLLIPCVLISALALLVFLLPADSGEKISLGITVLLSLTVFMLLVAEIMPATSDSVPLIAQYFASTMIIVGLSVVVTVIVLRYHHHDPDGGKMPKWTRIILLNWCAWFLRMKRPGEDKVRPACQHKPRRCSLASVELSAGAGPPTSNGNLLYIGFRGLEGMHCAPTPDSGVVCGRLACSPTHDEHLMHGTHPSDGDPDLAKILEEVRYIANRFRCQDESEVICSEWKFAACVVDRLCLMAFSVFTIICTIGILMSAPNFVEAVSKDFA

Regarding `[O-][N+]12CCC(CC1)N(c1nnc(-c3ccc4c(c3)OCO4)o1)CC2` [Compound 1, 4-(5-Benzo[1,3]-dioxol-5-yl-[1,3,4]oxadiazol-2-yl)-1,4-diazabicyclo[3.2.2]-nonane-1-oxide], the ED50 is 1.5 mg/kg.
